pIC50: −log10 of the molar value.
Biological target: T1, full-length SARM1 (FL-SARM1) (Homo sapiens, UniProt Q6SZW1)
T1 sequence (Q6SZW1 28-724): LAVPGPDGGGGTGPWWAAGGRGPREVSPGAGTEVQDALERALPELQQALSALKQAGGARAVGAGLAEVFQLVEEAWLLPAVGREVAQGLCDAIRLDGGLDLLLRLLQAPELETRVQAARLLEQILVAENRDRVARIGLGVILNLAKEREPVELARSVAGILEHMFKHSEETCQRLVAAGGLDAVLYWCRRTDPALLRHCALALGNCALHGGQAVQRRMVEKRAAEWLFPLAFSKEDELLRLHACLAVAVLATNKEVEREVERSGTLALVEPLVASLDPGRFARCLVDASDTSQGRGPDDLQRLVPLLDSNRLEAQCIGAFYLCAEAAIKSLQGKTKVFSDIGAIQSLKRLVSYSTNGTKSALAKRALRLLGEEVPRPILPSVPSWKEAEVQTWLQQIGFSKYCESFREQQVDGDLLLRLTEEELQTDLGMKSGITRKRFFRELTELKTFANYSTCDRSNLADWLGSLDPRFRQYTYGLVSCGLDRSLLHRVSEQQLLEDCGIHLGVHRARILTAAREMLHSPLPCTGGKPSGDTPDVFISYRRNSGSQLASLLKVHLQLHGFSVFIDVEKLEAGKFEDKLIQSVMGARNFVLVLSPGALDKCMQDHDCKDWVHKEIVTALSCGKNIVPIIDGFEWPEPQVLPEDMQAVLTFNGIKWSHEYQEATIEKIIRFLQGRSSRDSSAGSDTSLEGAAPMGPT
Assay: FL-SARM1 cellular lysate assay (NAD/NADH-Glo readout of remaining NAD+)
Details: SARM1 cellular lysate from transfected HEK293T cells, NAD+ and NMN, 11 point curve; for IC50: Activity (μM); for pIC50: Activity

Compound | IC50 | pIC50
Cc1ccc(NC(=O)N2C3CCCC2C3)cc1-c1ccnnc1 [Example 63] | 25.9 µM | < 5.00
O=C(Nc1ccc(C2CC2)c(-c2cncc(F)c2)c1)N1C2CCCC1C2 [Example 66, N-(4-cyclopropyl-3-(5-fluoropyridin-3-yl)phenyl)-6-azabicyclo[3.1.1]heptane-6-carboxamide] | 2 µM | 5.00 to 6.00
COc1ccc(-c2cc(NC(=O)N3C4CCCC3C4)ccc2C)cn1 [Example 67, N-(3-(6-methoxypyridin-3-yl)-4-methylphenyl)-6-azabicyclo[3.1.1]heptane-6-carboxamide] | 0.4 µM | 6.00 to 10.00
COc1ncccc1-c1cc(NC(=O)N2C3CCCC2C3)ccc1C [Example 68, N-(3-(2-methoxypyridin-3-yl)-4-methylphenyl)-6-azabicyclo[3.1.1]heptane-6-carboxamide] | 2.5 µM | 5.00 to 6.00
Cc1ccc(NC(=O)N2C3CCCC2C3)cc1-c1cccnc1C [Example 69, N-[4-methyl-3-(2-methylpyridin-3-yl)phenyl]-6-azabicyclo[3.1.1]heptane-6-carboxamide] | 1.6 µM | 5.00 to 6.00
Cc1ccc(-c2cc(NC(=O)N3C4CCCC3C4)ccc2C)cn1 [Example 70, N-[4-methyl-3-(6-methylpyridin-3-yl)phenyl]-6-azabicyclo[3.1.1]heptane-6-carboxamide] | 0.3 µM | 6.00 to 10.00
COc1cncc(-c2cc(NC(=O)N3C4CCCC3C4)ccc2C)c1 [Example 71, N-(3-(5-methoxypyridin-3-yl)-4-methylphenyl)-6-azabicyclo[3.1.1]heptane-6-carboxamide] | 0.08 µM | 6.00 to 10.00
Cc1ccc(NC(=O)N2C3CCCC2C3)cc1-c1cncc(C#N)c1 [Example 72, N-(3-(5-cyanopyridin-3-yl)-4-methylphenyl)-6-azabicyclo[3.1.1]heptane-6-carboxamide] | 0.1 µM | 6.00 to 10.00
O=C(Nc1cccc(-c2cncc(F)c2)c1)N1C2CCCC1C2 [Example 73, N-[3-(5-fluoropyridin-3-yl)phenyl]-6-azabicyclo[3.1.1]heptane-6-carboxamide] | 1.2 µM | 5.00 to 6.00
O=C(Nc1ccc(F)c(-c2cncc(F)c2)c1)N1C2CCCC1C2 [Example 74, N-(4-fluoro-3-(5-fluoropyridin-3-yl)phenyl)-6-azabicyclo[3.1.1]heptane-6-carboxamide] | 2.8 µM | 5.00 to 6.00
O=C(Nc1ccc(C(F)(F)F)c(-c2cncc(F)c2)c1)N1C2CCCC1C2 [Example 75, N-(3-(5-fluoropyridin-3-yl)-4-(trifluoromethyl)phenyl)-6-azabicyclo[3.1.1]heptane-6-carboxamide] | 1 µM | 5.00 to 6.00
CCc1ccc(NC(=O)N2[C@@H]3C[C@H](C)C[C@H]2C3)cc1-c1cncc(F)c1 [Example 76, trans-N-(4-ethyl-3-(5-fluoropyridin-3-yl)phenyl)-3-methyl-6-azabicyclo[3.1.1]heptane-6-carboxamide] | 0.03 µM | 6.00 to 10.00
Cc1ccc(NC(=O)N2CCOc3cccc(C#N)c3C2)cc1-c1cncc(F)c1 [Example 81] | 5.6 µM | 5.00 to 6.00
CCc1ccc(NC(=O)N2[C@@H]3C[C@@H](C)C[C@H]2C3)cc1-c1cncc(F)c1 [Example 82, cis-N-(4-ethyl-3-(5-fluoropyridin-3-yl)phenyl)-3-methyl-6-azabicyclo[3.1.1]heptane-6-carboxamide] | 0.02 µM | 6.00 to 10.00
Cc1ccc(NC(=O)N2[C@@H]3C[C@H](C)C[C@H]2C3)cc1-c1cncc(F)c1 [Example 84, cis-N-(3-(5-fluoropyridin-3-yl)-4-methylphenyl)-3-methyl-6-azabicyclo[3.1.1]heptane-6-carboxamide] | 0.007 µM | 6.00 to 10.00
Cc1ncc(-c2cc(NC(=O)N3C4CCCC3C4)ccc2C)cn1 [Example 85, N-(4-methyl-3-(2-methylpyrimidin-5-yl)phenyl)-6-azabicyclo[3.1.1]heptane-6-carboxamide] | 1.8 µM | 5.00 to 6.00
Cc1ccc(NC(=O)N2C3CCCC2C3)cc1-c1cccnc1 [Example 86, N-(4-methyl-3-(pyridine-3-yl)phenyl)-6-azabicyclo[3.1.1]heptane-6-carboxamide] | 0.2 µM | 6.00 to 10.00

Compound | IC50 | pIC50
Cc1ccc(NC(=O)N2C3CCCC2C3)cc1-c1cncc(F)c1 [Example 87, N-(3-(5-fluoropyridin-3-yl)-4-methylphenyl)-6-azabicyclo[3.1.1]heptane-6-carboxamide] | 0.1 µM | 6.00 to 10.00
Cc1ccc(NC(=O)N2C3CCCC2C3)cc1-c1cnc(C)c(F)c1 [Example 89, N-(3-(5-fluoro-6-methylpyridin-3-yl)-4-methylphenyl)-6-azabicyclo[3.1.1]heptane-6-carboxamide] | 0.4 µM | 6.00 to 10.00
COc1c(F)cncc1-c1cc(NC(=O)N2C3CCCC2C3)ccc1C [Example 90, N-(3-(5-fluoro-4-methoxypyridin-3-yl)-4-methylphenyl)-6-azabicyclo[3.1.1]heptane-6-carboxamide] | 1.9 µM | 5.00 to 6.00
Cc1ccncc1-c1cc(NC(=O)N2C3CCCC2C3)ccc1C [Example 91, N-(4-methyl-3-(4-methylpyridin-3-yl)phenyl)-6-azabicyclo[3.1.1]heptane-6-carboxamide] | 0.4 µM | 6.00 to 10.00
Cc1ccc(NC(=O)N2C3CCCC2C3)cc1-c1cncc(F)c1C [Example 92, N-(3-(5-fluoro-4-methylpyridin-3-yl)-4-methylphenyl)-6-azabicyclo[3.1.1]heptane-6-carboxamide] | 0.5 µM | 6.00 to 10.00
Cc1ccc(NC(=O)N2C3CCCC2(C(=O)N2CCCC2)C3)cc1-c1cncc(F)c1 (stereo not drawn) [Example 93, N-[3-(5-fluoropyridin-3-yl)-4-methylphenyl]-1-(pyrrolidine-1-carbonyl)-6-azabicyclo[3.1.1]heptane-6-carboxamide] | 4.4 µM | 5.00 to 6.00
Cc1ccc(NC(=O)N2C3CCC2COC3)cc1-c1cncc(F)c1 [Example 94, N-[3-(5-fluoropyridin-3-yl)-4-methylphenyl]-3-oxa-8-azabicyclo[3.2.1]octane-8-carboxamide] | 2.8 µM | 5.00 to 6.00
Cc1ccc(NC(=O)N2CC3CC2c2ccccc23)cc1-c1cncc(F)c1 (stereo not drawn) [Example 95, N-[3-(5-fluoropyridin-3-yl)-4-methylphenyl]-9-azatricyclo[6.2.1.02,7]undeca-2,4,6-triene-9-carboxamide] | 0.2 µM | 6.00 to 10.00
Cc1ccc(NC(=O)N2C3CCCC2(C#N)C3)cc1-c1cncc(F)c1 (stereo not drawn) [Example 96, 1-cyano-N-[3-(5-fluoropyridin-3-yl)-4-methylphenyl]-6-azabicyclo[3.1.1]heptane-6-carboxamide] | 0.07 µM | 6.00 to 10.00
Cc1ccc(NC(=O)N2C3CCC2CC3)cc1-c1cncc(F)c1 [Example 97, N-[3-(5-fluoropyridin-3-yl)-4-methylphenyl]-7-azabicyclo[2.2.1]heptane-7-carboxamide] | 0.4 µM | 6.00 to 10.00
Cc1nnc(C23CCCC(C2)N3C(=O)Nc2ccc(C)c(-c3cncc(F)c3)c2)o1 (stereo not drawn) [Example 98, N-[3-(5-fluoro-3-pyridyl)-4-methyl-phenyl]-1-(5-methyl-1,3,4-oxadiazol-2-yl)-6-azabicyclo[3.1.1]heptane-6-carboxamide] | 0.2 µM | 6.00 to 10.00
Cc1ccc(NC(=O)[C@H]2C[C@H](C3CC3(F)F)C2)cc1-c1cccnc1 (stereo partly drawn) [Example 99, trans-3-(2,2-difluorocyclopropyl)-N-(4-methyl-3-pyridin-3-ylphenyl)cyclobutane-1-carboxamide] | 5.1 µM | 5.00 to 6.00
Cc1ccc(NC(=O)[C@H]2C[C@@H](C3CC3(F)F)C2)cc1-c1cccnc1 (stereo partly drawn) [Example 100, cis-3-(2,2-difluorocyclopropyl)-N-(4-methyl-3-pyridin-3-ylphenyl)cyclobutane-1-carboxamide] | 1.5 µM | 5.00 to 6.00
Cc1ccc(NC(=O)C2C3CC2CN(CC(F)(F)F)C3)cc1-c1cncc(F)c1 (stereo not drawn) [Example 101, N-[3-(5-fluoropyridin-3-yl)-4-methylphenyl]-3-(2,2,2-trifluoroethyl)-3-azabicyclo[3.1.1]heptane-6-carboxamide] | 0.8 µM | 6.00 to 10.00
Cc1ccc(NC(=O)[C@H]2C[C@@](C#N)(C3CC3)C2)cc1-c1cncc(F)c1 [Example 106, trans-3-cyano-3-cyclopropyl-N-[3-(5-fluoropyridin-3-yl)-4-methylphenyl]cyclobutane-1-carboxamide] | 0.6 µM | 6.00 to 10.00
Cc1ccc(NC(=O)[C@H]2C[C@](C#N)(C3CC3)C2)cc1-c1cncc(F)c1 [Example 107, cis-3-cyano-3-cyclopropyl-N-[3-(5-fluoropyridin-3-yl)-4-methylphenyl]cyclobutane-1-carboxamide] | 38.9 µM | < 5.00
